For 43 compounds, IC50 results are on record in ChEMBL document CHEMBL4118258, “2-Substituted-1-(2-morpholinoethyl)-1H-naphtho[2,3-d]imidazole-4,9-diones: Design, synthesis and antiproliferative activity” (Bioorg Med Chem Lett, 2018).

One experiment relates to HeLa. The experiment can be described thus: Antiproliferative activity against human HeLa cells after 72 hrs by MTT assay. The class given is functional, cell-based.
A further experiment deals with MCF7. Description: Antiproliferative activity against human MCF7 cells after 72 hrs by MTT assay. The settings on record: MCF7, 72 h. It is filed as functional, cell-based.
The next experiment concerns A549. Description: cells. The settings on record: Homo sapiens, A549, 72 h.
A further experiment relates to L929. Description: Antiproliferative activity against mouse L929 cells after 72 hrs by MTT assay. Particulars: L929, 72 h.

Description for A549: Antiproliferative activity against human A549 cells after 72 hrs by MTT assay

What is called IC50 is the midpoint of a concentration-inhibition curve. A higher IC50 goes with lower potency. On to `Cc1nc2c(n1CCN1CCOCC1)C(=O)c1ccccc1C2=O`, for which the IC50 in the experiment with HeLa was more than 200 µM; with MCF7 it was more than 200 µM; in the experiment with A549, 105 µM; in the experiment on L929, 118 µM.

Turning to `Cc1ccccc1-c1nc2c(n1CCN1CCOCC1)C(=O)c1ccccc1C2=O`, the 50% inhibitory concentration (IC50) was 121 µM in the experiment on HeLa, 116 µM with MCF7, 23.6 µM in the experiment with A549 and 80.2 µM in the experiment with L929.

For the compound `CC(C)Cc1nc2c(n1CCN1CCOCC1)C(=O)c1ccccc1C2=O`, the IC50 with HeLa was 180 µM; with MCF7, more than 200 µM; in the experiment with A549, 25.9 µM; in the experiment on L929, 157 µM.

As for `O=C1c2ccccc2C(=O)c2c1nc(-c1ccsc1)n2CCN1CCOCC1`, the IC50 amounted to 136 µM in the experiment on HeLa, 115 µM in the experiment with MCF7, 20.9 µM with A549 and 122 µM with L929.

Take `O=C1C(Cl)=C(NCCN2CCOCC2)C(=O)c2nccnc21`: the IC50 is more than 200 µM with HeLa, more than 200 µM with MCF7, 158 µM in the experiment with A549 and 149 µM in the experiment on L929.

As to `O=C1c2ccccc2C(=O)c2c1nc(C1CCCCC1)n2CCN1CCOCC1`, the IC50 was more than 200 µM in the experiment with HeLa, more than 200 µM in the experiment on MCF7, 76.4 µM with A549 and 80.3 µM with L929.

Consider `O=C1c2ccccc2C(=O)c2c1nc(C1CCC1)n2CCN1CCOCC1`, for which the IC50 worked out at 99.3 µM in the experiment with HeLa, 105 µM with MCF7, 73 µM with A549 and 84.9 µM in the experiment with L929.

Regarding `COc1ccc(-c2nc3c(n2CCN2CCOCC2)C(=O)c2ccccc2C3=O)cc1Cl`, the IC50 was 8.3 µM in the experiment with HeLa, 10.6 µM in the experiment with MCF7, 4.3 µM with A549 and 67.3 µM with L929.

As to `O=C1c2ccccc2C(=O)c2c1nc(-c1cnccn1)n2CCN1CCOCC1`, the IC50 was 79.1 µM in the experiment on HeLa, 53.5 µM with MCF7, 78.3 µM in the experiment with A549 and 49.6 µM in the experiment on L929.

For the compound `O=C1c2ccccc2C(=O)c2c1nc(-c1cccnc1)n2CCN1CCOCC1`, the IC50 with HeLa was 109 µM; with MCF7 it was 167 µM; in the experiment on A549, 37.8 µM; in the experiment with L929, 44.6 µM.

Consider `O=C1c2ccccc2C(=O)c2c1nc(-c1ccc(F)c(Cl)c1)n2CCN1CCOCC1`, for which the IC50 with HeLa was 52.5 µM; with MCF7, 48.4 µM; in the experiment with A549, 31.2 µM; in the experiment with L929, 44.3 µM.

In the case of `CC(C)c1nc2c(n1CCN1CCOCC1)C(=O)c1ccccc1C2=O`, the IC50 in the experiment with HeLa was determined as 125 µM; with MCF7, 123 µM; in the experiment on A549, 32.5 µM; in the experiment with L929, 79.8 µM.

With `CCCCc1nc2c(n1CCN1CCOCC1)C(=O)c1ccccc1C2=O`, the IC50 with HeLa was 166 µM; with MCF7, 113 µM; in the experiment with A549 it was 107 µM; with L929 it was more than 200 µM.

As to `CC(C)c1ccc(-c2nc3c(n2CCN2CCOCC2)C(=O)c2ccccc2C3=O)cc1`, the IC50 in the experiment on HeLa worked out at 99.8 µM; in the experiment on MCF7, 106 µM; in the experiment on A549 it was 70 µM; with L929 it was 71.9 µM.

For `Cc1ccc(CCc2nc3c(n2CCN2CCOCC2)C(=O)c2ccccc2C3=O)o1`, the half-maximal inhibitory concentration (IC50) stood at 88.2 µM in the experiment with HeLa, 166 µM with MCF7, 72.8 µM in the experiment with A549 and 96.2 µM in the experiment on L929.

Regarding `C[N+]1(CCn2c(-c3cccc(F)c3)nc3c2C(=O)c2ccccc2C3=O)CCOCC1`, the IC50 in the experiment with HeLa was 166 µM; in the experiment with MCF7 it was 166 µM; in the experiment with A549, 166 µM; in the experiment with L929 it was more than 200 µM.

`CCC(C)c1nc2c(n1CCN1CCOCC1)C(=O)c1ccccc1C2=O` (configuration not stated): the IC50 was more than 200 µM in the experiment with HeLa, 123 µM with MCF7, 175 µM in the experiment on A549 and 100 µM with L929.

As to `O=C1c2ccccc2C(=O)c2c1nc(-c1ccccn1)n2CCN1CCOCC1`, the IC50 with HeLa stood at 105 µM; with MCF7 it was 37.7 µM; with A549, 32.2 µM; in the experiment on L929, 118 µM.

For `O=C1c2ccccc2C(=O)c2c1nc(-c1ccccc1)n2CCN1CCOCC1`, the IC50 in the experiment with HeLa turned out to be 61.4 µM; in the experiment on MCF7, 70.1 µM; with A549, 24.5 µM; in the experiment with L929, 40.6 µM.

As for `O=C1c2ccccc2C(=O)c2c1nc(-c1cccc3ccccc13)n2CCN1CCOCC1`, the IC50 in the experiment with HeLa amounted to 19.2 µM; in the experiment on MCF7, 30.1 µM; with A549, 16.6 µM; in the experiment with L929 it was 41 µM.

Regarding `CCC(CC)c1nc2c(n1CCN1CCOCC1)C(=O)c1ccccc1C2=O`, the half-maximal inhibitory concentration (IC50) in the experiment with HeLa worked out at 95.9 µM; in the experiment with MCF7, 108 µM; in the experiment with A549 it was 57.3 µM; with L929, 79.4 µM.

In the case of `Cc1cc2ncn(CCN3CCOCC3)c2cc1C`, the IC50 is more than 200 µM in the experiment with HeLa, 181 µM in the experiment on MCF7, 112 µM in the experiment on A549 and 187 µM in the experiment on L929.

Consider `O=C1c2ccccc2C(=O)c2c1nc(-c1cccc(C(F)(F)F)c1)n2CCN1CCOCC1`, for which the IC50 with HeLa stood at 185 µM; with MCF7, 134 µM; with A549 it was 33.3 µM; in the experiment on L929, 72.5 µM.

As to `O=C1c2ccccc2C(=O)c2c1nc(C1CC1)n2CCN1CCOCC1`, the IC50 came out at 61.2 µM in the experiment with HeLa, 64.7 µM in the experiment on MCF7, 36 µM in the experiment with A549 and 40 µM in the experiment with L929.

For the compound `O=C1c2ccccc2C(=O)c2c1nc(-c1ccc(Cl)c(C(F)(F)F)c1)n2CCN1CCOCC1`, the IC50 in the experiment on HeLa came out at 119 µM; in the experiment on MCF7, 140 µM; in the experiment with A549 it was 45.2 µM; in the experiment with L929 it was 111 µM.

As for `C[N+]1(CCn2c(C(F)(F)F)nc3c2C(=O)c2ccccc2C3=O)CCOCC1`, the IC50 is 116 µM in the experiment on HeLa, 139 µM in the experiment with MCF7, 93.5 µM with A549 and more than 200 µM in the experiment with L929.

On to `CC(C)(C)c1nc2c(n1CCN1CCOCC1)C(=O)c1ccccc1C2=O`, for which the IC50 with HeLa turned out to be 88.2 µM; in the experiment with MCF7, 150 µM; in the experiment with A549 it was 21.8 µM; in the experiment with L929, 86 µM.

Turning to `CCc1nc2c(n1CCN1CCOCC1)C(=O)c1ccccc1C2=O`, the IC50 with HeLa worked out at 144 µM; with MCF7, 179 µM; in the experiment with A549 it was 84.9 µM; with L929, 106 µM.

`C[N+]1(CCn2c(-c3ccccc3)nc3c2C(=O)c2ccccc2C3=O)CCOCC1`: the IC50 in the experiment on HeLa was more than 200 µM; in the experiment on MCF7, 184 µM; in the experiment with A549 it was more than 200 µM; in the experiment with L929, more than 200 µM.

On to `O=C1c2ccccc2C(=O)c2c1nc(/C=C/c1ccccc1)n2CCN1CCOCC1`, for which the IC50 in the experiment with HeLa was determined as 82.1 µM; in the experiment on MCF7, 58.3 µM; with A549, 76.9 µM; with L929, 120 µM.

Regarding `O=C1c2ccccc2C(=O)c2c1nc(-c1cccs1)n2CCN1CCOCC1`, the IC50 with HeLa is 173 µM; with MCF7, 137 µM; in the experiment with A549, 91.9 µM; with L929, 177 µM.

As for `c1c2ncn(CCN3CCOCC3)c2cc2ncn(CCN3CCOCC3)c12`, the IC50 in the experiment on HeLa, in the experiment with MCF7, with A549 and in the experiment on L929 was more than 200 µM each time.

`CCCc1nc2c(n1CCN1CCOCC1)C(=O)c1ccccc1C2=O`: the IC50 in the experiment on HeLa turned out to be 95.1 µM; in the experiment with MCF7, 95.9 µM; in the experiment on A549, 37.4 µM; in the experiment on L929 it was 80.3 µM.

In the case of `O=C1c2ccccc2C(=O)c2c1nc(-c1ccc(-c3nc4c(n3CCN3CCOCC3)C(=O)c3ccccc3C4=O)cc1)n2CCN1CCOCC1`, the IC50 with HeLa is 79.2 µM; with MCF7, 39.1 µM; in the experiment with A549, 63.4 µM; in the experiment on L929 it was 121 µM.

Take `COc1ccc(-c2nc3c(n2CCN2CCOCC2)C(=O)c2ccccc2C3=O)cc1`: the IC50 with HeLa was determined as 112 µM; with MCF7, 86.9 µM; in the experiment with A549, 84.5 µM; with L929, 101 µM.

For `O=C1c2ccccc2C(=O)c2c1nc(C(F)(F)F)n2CCN1CCOCC1`, the IC50 turned out to be 15.1 µM with HeLa, 17.9 µM with MCF7, 15.9 µM in the experiment on A549 and 16.2 µM in the experiment with L929.

In the case of `O=C1c2ccccc2C(=O)c2c1nc(-c1ccco1)n2CCN1CCOCC1`, the IC50 in the experiment with HeLa is 191 µM; in the experiment with MCF7 it was 169 µM; with A549 it was 147 µM; with L929, 175 µM.

Consider `COc1ccc(-c2nc3c(n2CC[N+]2(C)CCOCC2)C(=O)c2ccccc2C3=O)cc1Cl`, for which the IC50 in the experiment on HeLa is 97.5 µM; with MCF7, more than 200 µM; with A549, 174 µM; with L929, more than 200 µM.

For `CC(C)c1ccc(CC(C)c2nc3c(n2CCN2CCOCC2)C(=O)c2ccccc2C3=O)cc1` (configuration not stated), the IC50 in the experiment with HeLa is 122 µM; in the experiment with MCF7 it was 110 µM; in the experiment with A549, more than 200 µM; in the experiment on L929 it was more than 200 µM.

In the case of `C[N+]1(CCn2c(-c3ccccn3)nc3c2C(=O)c2ccccc2C3=O)CCOCC1`, the IC50 in the experiment on HeLa was found to be 106 µM; in the experiment on MCF7 it was 141 µM; in the experiment with A549, 141 µM; with L929, 106 µM.

For the compound `O=C1c2ccccc2C(=O)c2c1nc(-c1cccc(F)c1)n2CCN1CCOCC1`, the IC50 in the experiment on HeLa amounted to 133 µM; with MCF7 it was 106 µM; in the experiment with A549 it was 87 µM; with L929 it was 131 µM.

As for `C[N+]1(CCn2c(-c3ccsc3)nc3c2C(=O)c2ccccc2C3=O)CCOCC1`, the IC50 with HeLa came to 160 µM; in the experiment on MCF7, 133 µM; in the experiment with A549, 115 µM; in the experiment with L929 it was 133 µM.

Turning to `O=C1c2ccccc2C(=O)c2c1nc(-c1ccncc1)n2CCN1CCOCC1`, the IC50 in the experiment on HeLa was found to be 153 µM; with MCF7 it was 140 µM; with A549 it was 120 µM; with L929 it was 116 µM.
